Source: BindingDB's records for patent US20240083921 (Reistone Biopharma Company, 2024)

Target: cAMP-specific 3',5'-cyclic phosphodiesterase 4B (Homo sapiens, UniProt Q07343)
Assay: In vitro PDE4B Enzyme Activity Detection Assay
Description: 1. Experimental MaterialsName Brand Cat No.PDE4B1 enzyme BPS 60041Trequinsin TOCRIS 2337/10IMAP FP IPP Explorer Kit Molecular Device R8124FAM-cAMP Molecular Device R7506OptiPlate -384 F PerkinElmer 6007279black assay plate 384 well Echo plate Labcyte PP-02002. Experimental StepsFirst, a stock solution of the compound at a concentration of 10 mM was prepared in a test tube with 90% DMSO (10% water), and it was used to prepare a series of dilutions with a dilution factor of 1:5 and final concentrations starting from 100 μM to as low as 0.05 nM. 0.2 μl of the compound solution was transferred into a 384-well reaction plate, and 0.2 μl of 100% DMSO was transferred into both the negative and positive controls. Then, 10 μl of 2 PDE4B1 enzyme solution (making a final concentration of 0.04 nM) was added to each well, and 10 μl of 1 reaction buffer instead of the enzyme solution was added to the zero enzyme activity control wells. The plate was centrifuged at 1,000 rpm for 1 min and incubated at room temperature for 15 min. […] After the incubation, the RLU data were read and the inhibition rate was calculated. The IC50 value was calculated from the concentration-inhibition fitted curve, wherein the maximum value refers to the reading of the DMSO control and the minimum value refers to the reading of the zero enzyme activity control.

cAMP-specific 3',5'-cyclic phosphodiesterase 4B, sequence (Q07343 whole entry): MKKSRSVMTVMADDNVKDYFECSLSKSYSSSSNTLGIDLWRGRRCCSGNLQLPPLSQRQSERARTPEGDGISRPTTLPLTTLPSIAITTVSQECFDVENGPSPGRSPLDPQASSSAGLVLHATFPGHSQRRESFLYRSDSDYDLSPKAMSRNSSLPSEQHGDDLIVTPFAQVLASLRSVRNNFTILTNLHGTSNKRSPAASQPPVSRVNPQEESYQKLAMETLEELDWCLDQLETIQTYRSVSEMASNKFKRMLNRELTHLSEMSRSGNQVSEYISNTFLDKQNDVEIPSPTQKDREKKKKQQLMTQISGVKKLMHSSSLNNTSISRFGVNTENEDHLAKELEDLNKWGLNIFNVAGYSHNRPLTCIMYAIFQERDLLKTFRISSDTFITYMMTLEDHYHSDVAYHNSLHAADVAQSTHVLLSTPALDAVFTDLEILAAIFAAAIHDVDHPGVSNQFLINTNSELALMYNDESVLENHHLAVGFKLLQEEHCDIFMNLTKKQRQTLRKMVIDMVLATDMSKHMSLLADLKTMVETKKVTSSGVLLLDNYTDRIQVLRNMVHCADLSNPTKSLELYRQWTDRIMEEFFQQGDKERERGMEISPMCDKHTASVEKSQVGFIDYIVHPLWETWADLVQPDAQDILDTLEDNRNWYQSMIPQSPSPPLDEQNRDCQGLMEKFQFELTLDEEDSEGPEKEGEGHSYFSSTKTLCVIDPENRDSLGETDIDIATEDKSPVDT

| Structure (SMILES) | IC50 |
| --- | --- |
| COc1ccc(-c2cncc(C3COB(O)C3)c2)c2c1OC(C)(C)CO2 (configuration not stated) [US20240083921, Compound 8] | 0.22 nM |
| COc1ccc(-c2cncc([C@H]3COB(O)C3)n2)c2c1OC(C)(C)CC2 [US20240083921, Compound 11-2] | 3.62 nM |
